Results from patent US20070066636A1, “POLYMORPHS OF TARTRATE SALT OF 2-[2-(3-(R)-AMINO-PIPERIDIN-1-YL)-5-FLUORO-6-OXO-6H-PYRIMIDIN-1-YLMETHYL]-BENZONITRILE AND METHODS OF USE THEREFOR” (priority 2005, published 2007).
Counter-ions that a name gives are not always drawn.

What was measured:
Format in all cases: physicochemical
[1] = Slurry interconversion studies in methanol; conditions: room temperature, slurry time 5 days
Description: Slurry Experiments: Enough Compound I was added to a given solvent so that undissolved solids were present. The mixture was then agitated in a sealed vial at ambient temperature using either an orbital shaker or a rotating wheel. After several days the solids were isolated by vacuum filtration and allowed to dry at ambient temperature in the fume hood with the cap for the sample vial loosened.
In order to determine the relative stability of the polymorphs Compound I form A was slurried in separate experiments with roughly equal amounts of forms B, C and E in methanol at room temperature. After 12 days the solids were isolated and form A was recovered as the exclusive solid phase (Table 6). In addition to these experiments, slurries of forms B, C and D in the absence of other solid phases provided form A when slurried for 5 days in methanol at room temperature. […] It should be noted that the hydration states of these solid phases may be different for the different forms, which precludes an analysis of the true thermodynamic stability ordering through slurry experiments.

[2] = Moisture sorption/desorption analysis; conditions: for solid form of post moisture sorption/desorption sample by XRPD: after 5%-95%-5% RH cycle; for Weight Change: 25 C
Description: Moisture sorption/desorption data were collected on a VTI SGA-100 Vapor Sorption Analyzer. Sorption and desorption data were collected over a range of 5% to 95% relative humidity (RH) at 10% RH intervals under a nitrogen purge. Sodium chloride (NaCl) and polyvinylpyrrolidone (PVP) were used as the calibration standards. Equilibrium criteria used for analysis were less than 0.0100% weight change in 5 minutes, with a maximum equilibration time of 180 minutes if the weight criterion was not met. The plotted data that contain the percent weight change values at various RH intervals are relative to the initial weight of the sample. The plotted data have not been corrected for the initial moisture content. However, the weight gain data provided in the tables for the various relative humidity ranges are calculated using the sample weight at the beginning of the particular RH event as the initial weight. In particular, the equilibration event wt. % change from initial wt. to 5% RH was calculated as [(wt at 5% RH−initial wt.)/initial wt.]*100; and the sorption event wt. % change from 5% RH to 95% RH was calculated as [(wt. at 95% RH−wt at 5% RH)/wt at 5% RH]*100; and the desorption event wt. % change from 95% RH to 5% RH was calculated as [(wt. at 5% RH−wt at 95% RH)/wt at 95% RH]*100. This type of analysis permits direct comparison of the experimental weight changes to the theoretical values predicted for the inter-conversion of anhydrates to hydrated forms.

[3] = Relative humidity (RH) stress of solids, XRPD; conditions: ambient, 21 d
Description: Relative Humidity (RH) Stress: Open vials containing solid samples were placed inside chambers containing saturated salt solutions along with a small amount of the undissolved salt. The chambers were sealed and allowed to stand at ambient temperature for several weeks. Samples were analyzed by X-ray powder diffraction (XRPD) immediately after removing the sample from the RH chamber. The RH values for these salt solutions were obtained from an ASTM standard. See a) “Preparation and Use of Relative Humidity Chambers” SSCI Method MTD 032.01 Mar. 3, 2003; and b) “Standard Practice for Maintaining Constant Relative Humidity by Means of Aqueous Solutions” ASTM Standard E 104-02 (2002).

[4] = after desorption at about 5% RH, Tables 2C-2F (values fit change relative to initial weight)
[5] = after equilibration at about 5% RH, Tables 2C-2F (values fit change relative to initial weight)
[6] = after sorption at about 95% RH, Tables 2C-2F (values fit change relative to initial weight)

N#Cc1ccccc1Cn1c(N2CCC[C@@H](N)C2)ncc(F)c1=O [Form B, tartrate salt of 2-[2-(3-(R)-amino-piperidin-1-yl)-5-fluoro-6-oxo-6H-pyrimidin-1-ylmethyl]-benzonitrile]
XRPD Result after slurry [1]: Form A
solid form of post moisture sorption/desorption sample by XRPD [2]: form C
Weight Change ([2]; desorption, 95% RH to about 5% RH, Tables 2A, 2B (relative to weight at start of the event)): −6.30%
Weight Change ([2]; equilibration, initial weight to about 5% RH, Tables 2A, 2B (relative to weight at start of the event)): −0.50%
initial weight loss from ambient conditions to 5% RH ([2]; moisture sorption/desorption): approximately 0.5%
weight gain between 5% and 95% RH ([2]; moisture sorption/desorption): 6.6%
Weight Change ([2]; sorption, 5% RH to about 95% RH, Tables 2A, 2B (relative to weight at start of the event)): 6.64%

N#Cc1ccccc1Cn1c(N2CCC[C@@H](N)C2)ncc(F)c1=O [amorphous Form 2, tartrate salt of 2-[2-(3-(R)-amino-piperidin-1-yl)-5-fluoro-6-oxo-6H-pyrimidin-1-ylmethyl]-benzonitrile]
Weight Change [2, 4]: 0.433%
Weight Change [2, 5]: 0.156%
Weight Change [2, 6]: 6.013%

N#Cc1ccccc1Cn1c(N2CCC[C@@H](N)C2)ncc(F)c1=O [amorphous Form 1, tartrate salt of 2-[2-(3-(R)-amino-piperidin-1-yl)-5-fluoro-6-oxo-6H-pyrimidin-1-ylmethyl]-benzonitrile]
XRPD Pattern after RH stress ([3]; 6% RH stress): Amorphous
XRPD Pattern after RH stress ([3]; 33% RH stress): Amorphous
XRPD Pattern after RH stress ([3]; 58% RH stress): Amorphous
XRPD Pattern after RH stress ([3]; 75% RH stress): Form B
XRPD Pattern after RH stress ([3]; 84% RH stress): Pattern F
solid form of post moisture sorption/desorption sample by XRPD [2]: tentatively identified as containing form A
Weight Change [2, 4]: 0.868%
Weight Change [2, 5]: −0.054%
Weight Change [2, 6]: 13.393%
initial weight gain from ambient conditions to 5% RH ([2]; moisture sorption/desorption): approximately 0.2%
weight gain between 5% and 95% RH ([2]; moisture sorption/desorption): 5.8%
weight gain between 5% and 95% RH ([2]; moisture sorption/desorption, listed as freeze dried Compound I): ~13.5%

N#Cc1ccccc1Cn1c(N2CCC[C@@H](N)C2)ncc(F)c1=O [Form E, tartrate salt of 2-[2-(3-(R)-amino-piperidin-1-yl)-5-fluoro-6-oxo-6H-pyrimidin-1-ylmethyl]-benzonitrile]
solid form of post moisture sorption/desorption sample by XRPD [2]: form C
Weight Change [2, 4]: 0.098%
Weight Change [2, 5]: −0.352%
Weight Change [2, 6]: 8.801%
initial weight loss from ambient conditions to 5% RH ([2]; moisture sorption/desorption): approximately 0.4%
weight gain between 5% and 95% RH ([2]; moisture sorption/desorption): 9.2%

N#Cc1ccccc1Cn1c(N2CCC[C@@H](N)C2)ncc(F)c1=O [Form D, tartrate salt of 2-[2-(3-(R)-amino-piperidin-1-yl)-5-fluoro-6-oxo-6H-pyrimidin-1-ylmethyl]-benzonitrile]
XRPD Result after slurry [1]: Form A

N#Cc1ccccc1Cn1c(N2CCC[C@@H](N)C2)ncc(F)c1=O [Form C, tartrate salt of 2-[2-(3-(R)-amino-piperidin-1-yl)-5-fluoro-6-oxo-6H-pyrimidin-1-ylmethyl]-benzonitrile]
XRPD Result after slurry [1]: Form A
solid form of post moisture sorption/desorption sample by XRPD [2]: form C
Weight Change [2, 4]: −0.899%
Weight Change [2, 5]: −0.873%
Weight Change [2, 6]: 4.744%
molecules of water present for every molecule of compound ([2]; at 95% RH, calculated from desorption weight change and molecular weight): approximately 1.5
initial weight loss from ambient conditions to 5% RH ([2]; moisture sorption/desorption): approximately 0.9%
weight gain between 5% and 95% RH ([2]; moisture sorption/desorption): 5.7%
